# Reference: ChEMBL document CHEMBL2177089, “Novel tetrahydropyrido[1,2-a]isoindolone derivatives (valmerins): potent cyclin-dependent kinase/glycogen synthase kinase 3 inhibitors with antiproliferative activities and antitumor effects in human tumor xenografts” (J Med Chem, 2012)
# The source made the active and inactive calls. No cut-off for these calls is given here.
# Legend:
# [1] = molecular target: Glycogen synthase kinase-3 (Sus scrofa, UniProt B2LUN4+I6LNT8); assay: Inhibition of porcine brain GSK-3alpha/beta using YRRAAVPPSPSLSRHSSPHQpSEDEEE as substrate and [gamma-33P]-ATP after 30 mins by scintillation counting
# [2] = molecular target: Dual specificity tyrosine-phosphorylation-regulated kinase 1A (Homo sapiens, UniProt Q13627); assay: Inhibition of human recombinant GST-fused DYRK1A expressed in Escherichia coli using KKISGRLSPIMTEQ as substrate and [gamma-33P]-ATP after 30 mins by scintillation counting
# [3] = molecular target: Cyclin-dependent kinase 5/CDK5 activator 1 (Homo sapiens, UniProt Q00535); assay: Inhibition of human recombinant CDK5/p25 using histone H1 as substrate and [gamma-33P]-ATP after 30 mins by scintillation counting; format: protein-complex assay
# [4] = test system: NCI-H727; assay: cells; conditions: Homo sapiens, NCI-H727, 48 h
# Description: Cytotoxicity against human NCI-H727 cells after 48 hrs
# [5] = Inhibition of porcine brain CK1delta/epsilon using RRKHAAIGpSAYSITA as substrate and [gamma-33P]-ATP after 30 mins by scintillation counting; design: species or system Sus scrofa
# [6] = Cytotoxicity against human skin fibroblasts cells after 48 hrs; conditions: Fibroblast
# [7] = test system: Caco-2; assay: cells; conditions: Homo sapiens, Caco-2, 48 h
# Description: Cytotoxicity against human Caco2 cells after 48 hrs
# [8] = test system: HCT-116; assay: cells; conditions: Homo sapiens, HCT-116, 48 h
# Description: Cytotoxicity against human HCT116 cells after 48 hrs
# [9] = test system: MDA-MB-231; assay: cells; conditions: Homo sapiens, MDA-MB-231, 48 h
# Description: Cytotoxicity against human MDA-MB-231 cells after 48 hrs
# [10] = test system: Huh-7; assay: cells; conditions: Homo sapiens, Huh-7, 48 h
# Description: Cytotoxicity against human HuH7 cells after 48 hrs
# [11] = test system: PC-3; assay: cells; conditions: Homo sapiens, PC-3, 48 h
# Description: Cytotoxicity against human PC3 cells after 48 hrs
# [12] = test system: Huh-7; assay: Cell cycle arrest in human HuH7 cells assessed as accumulation at G1 phase at 1 uM after 24 hrs; format: functional, cell-based
# [13] = test system: PC-3; assay: Cell cycle arrest in human PC3 cells assessed as accumulation at G1 phase at 1 uM after 24 hrs; format: functional, cell-based
# [14] = test system: Caco-2; assay: Cell cycle arrest in human Caco2 cells assessed as accumulation at G1 phase at 1 uM after 24 hrs; format: functional, cell-based
# [15] = test system: HCT-116; assay: Induction of apoptosis in human HCT116 cells assessed as activation of caspase-3 at 1 uM after 24 hrs; format: functional, cell-based
# [16] = test system: NCI-H727; assay: Cell cycle arrest in human NCI-H727 cells assessed as accumulation at G1 phase at 1 uM after 24 hrs; format: functional, cell-based
# [17] = test system: MDA-MB-231; assay: Cell cycle arrest in human MDA-MB-231 cells assessed as accumulation at G1 phase at 1 uM after 24 hrs; format: functional, cell-based
# [18] = test system: HCT-116; assay: Cell cycle arrest in human HCT116 cells assessed as accumulation at G1 phase at 1 uM after 24 hrs; format: functional, cell-based
# [19] = test system: HCT-116; assay: Antitumor activity against human HCT116 cells xenografted in nude NMRI mouse assessed as tumor reduction at 10 mg/kg, ip administered 3 times in a week for 4 weeks; format: functional; design: scale not given: the % may be the effect or the level left; conditions: route intraperitoneal
# [20] = test system: MDA-MB-231; assay: Cell cycle arrest in human MDA-MB-231 cells assessed as accumulation at G1 phase at 0.6 uM after 24 hrs; format: functional, cell-based
# [21] = molecular target: Cyclin-dependent kinase 1 (Homo sapiens, UniProt P06493); assay: Inhibition of CDK1
# [22] = test system: Mus musculus; assay: Toxicity in NMRI mouse assessed as food consumption at 1 to 10 mg/kg, ip qd for 2 weeks; format: organism-based; design: dose 1-10 mg/kg, route intraperitoneal; conditions: in vivo, 336 h
# [23] = test system: NCI-H727; assay: Cell cycle arrest in human NCI-H727 cells assessed as accumulation at G1 phase at 0.6 uM after 24 hrs; format: functional, cell-based
# [24] = test system: Caco-2; assay: Cell cycle arrest in human Caco2 cells assessed as accumulation at G1 phase at 0.6 uM after 24 hrs; format: functional, cell-based
# [25] = test system: HCT-116; assay: Antitumor activity against human HCT116 cells xenografted in nude NMRI mouse assessed as tumor reduction at 10 mg/kg, ip administered 3 times in a week for 4 weeks by whole-body bioluminescent imaging; format: functional; design: scale not given: the % may be the effect or the level left; conditions: route intraperitoneal
# [26] = test system: HCT-116; assay: Induction of apoptosis in human HCT116 cells assessed as activation of caspase-3 at 0.6 uM after 24 hrs; format: functional, cell-based
# [27] = test system: Mus musculus; assay: Toxicity in NMRI mouse assessed as macroscopic examination of organs at 1 to 10 mg/kg, ip qd for 2 weeks; format: organism-based; design: dose 1-10 mg/kg, route intraperitoneal; conditions: in vivo, 336 h
# [28] = test system: Mus musculus; assay: Toxicity in NMRI mouse assessed as blood formulation at 1 to 10 mg/kg, ip qd for 2 weeks; format: organism-based; design: dose 1-10 mg/kg, route intraperitoneal; conditions: in vivo, 336 h
# [29] = test system: HCT-116; assay: Cell cycle arrest in human HCT116 cells assessed as accumulation at G1 phase at 0.6 uM after 24 hrs; format: functional, cell-based
# [30] = test system: Mus musculus; assay: Toxicity in NMRI mouse assessed as weight loss at 1 to 10 mg/kg, ip qd for 2 weeks; format: organism-based; design: dose 1-10 mg/kg, route intraperitoneal; conditions: in vivo, 336 h
# [31] = test system: Mus musculus; assay: Toxicity in NMRI mouse assessed as mortality at 1 to 10 mg/kg, ip qd for 2 weeks; format: organism-based; design: dose 1-10 mg/kg, route intraperitoneal; conditions: in vivo, 336 h
# [32] = test system: Huh-7; assay: Cell cycle arrest in human HuH7 cells assessed as accumulation at G1 phase at 0.6 uM after 24 hrs; format: functional, cell-based
# [33] = test system: PC-3; assay: Cell cycle arrest in human PC3 cells assessed as accumulation at G1 phase at 0.6 uM after 24 hrs; format: functional, cell-based
# Sequence of Cyclin-dependent kinase 5/CDK5 activator 1 (Q00535 whole entry): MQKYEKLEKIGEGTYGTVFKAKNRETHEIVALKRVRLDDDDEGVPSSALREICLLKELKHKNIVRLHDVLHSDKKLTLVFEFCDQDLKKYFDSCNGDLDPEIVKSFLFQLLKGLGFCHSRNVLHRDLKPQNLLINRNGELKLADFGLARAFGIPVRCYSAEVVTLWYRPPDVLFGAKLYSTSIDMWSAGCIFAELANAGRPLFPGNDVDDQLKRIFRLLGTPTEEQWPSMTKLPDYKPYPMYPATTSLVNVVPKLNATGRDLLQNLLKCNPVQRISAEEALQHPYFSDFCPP
# Sequence of Cyclin-dependent kinase 5/CDK5 activator 1 (Q15078 whole entry, further chain): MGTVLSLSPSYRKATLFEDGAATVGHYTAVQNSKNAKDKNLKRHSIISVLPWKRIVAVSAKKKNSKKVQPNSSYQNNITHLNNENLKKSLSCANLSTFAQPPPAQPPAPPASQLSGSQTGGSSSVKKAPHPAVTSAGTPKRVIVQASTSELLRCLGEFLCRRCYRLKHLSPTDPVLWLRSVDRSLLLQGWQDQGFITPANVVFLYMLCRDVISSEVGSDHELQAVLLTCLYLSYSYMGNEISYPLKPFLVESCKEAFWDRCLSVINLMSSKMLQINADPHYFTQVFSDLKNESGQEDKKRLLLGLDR
# Sequence of Cyclin-dependent kinase 1 (P06493 whole entry): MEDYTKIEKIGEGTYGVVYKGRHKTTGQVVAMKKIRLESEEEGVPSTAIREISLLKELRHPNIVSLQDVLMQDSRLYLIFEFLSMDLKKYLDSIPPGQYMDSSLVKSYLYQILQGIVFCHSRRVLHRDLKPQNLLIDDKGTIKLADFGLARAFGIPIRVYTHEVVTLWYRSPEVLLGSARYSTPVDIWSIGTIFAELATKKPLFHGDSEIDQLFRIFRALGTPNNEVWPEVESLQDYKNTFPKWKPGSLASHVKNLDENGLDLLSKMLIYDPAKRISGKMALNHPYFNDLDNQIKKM
compound,measurement,setting,value
Cc1cc(NC(=O)Nc2cccc3c2C2CCCCN2C3=O)no1 (stereo not given),IC50,[1],0.33 µM
Cc1nc(NC(=O)Nc2cccc3c2C2CCCCN2C3=O)cs1 (stereo not given),IC50,[1],0.12 µM
O=C(Nc1cccc2c1C1CCCCN1C2=O)NC1CCCCC1 (stereo not given),IC50,[2],> 10 µM
same,IC50,[3],> 10 µM
same,IC50,[1],> 10 µM
O=C(Nc1cccc2c1C1CCCCN1C2=O)Nc1ncccc1O (stereo not given),IC50,[4],0.8 µM
same,IC50,[5],1.5 µM
same,IC50,[6],3 µM
same,IC50,[7],6 µM
same,IC50,[8],1 µM
same,IC50,[2],1.8 µM
same,IC50,[3],0.037 µM
same,IC50,[1],0.051 µM
same,IC50,[9],2 µM
same,IC50,[10],0.5 µM
same,IC50,[11],0.4 µM
O=C(Nc1cccc2c1C1CCCCN1C2=O)Nc1ncc(F)cc1F (stereo not given),IC50,[5],> 10 µM
same,IC50,[2],> 10 µM
same,IC50,[3],0.26 µM
same,IC50,[1],0.2 µM
O=C(Nc1nc2ccccc2s1)Nc1cccc2c1C1CCCCN1C2=O (stereo not given),IC50,[2],> 10 µM
same,IC50,[1],3.5 µM
O=C(Nc1cc(-c2ccccc2)on1)Nc1cccc2c1C1CCCCN1C2=O (stereo not given),IC50,[1],0.27 µM
O=C(Nc1ccncn1)Nc1cccc2c1C1CCCCN1C2=O (stereo not given),IC50,[2],> 10 µM
same,IC50,[1],0.38 µM
O=C(Nc1ccc(-c2ccccc2)cn1)Nc1cccc2c1C1CCCCN1C2=O (stereo not given),IC50,[5],> 10 µM
same,IC50,[2],> 10 µM
same,IC50,[3],4 µM
same,IC50,[1],0.14 µM
O=C(Nc1cc(O)c2ccccc2n1)Nc1cccc2c1C1CCCCN1C2=O (stereo not given),IC50,[2],5.6 µM
same,IC50,[3],10 µM
same,IC50,[1],1.2 µM
O=C(Nc1cnccn1)Nc1cccc2c1C1CCCCN1C2=O (stereo not given),Activity,[12],Active
same,Activity,[13],Active
same,Activity,[14],Active
same,Activity,[15],Active
same,Activity,[16],Active
same,Activity,[17],Active
same,Activity,[18],Active
O=C(Nc1ccccn1)Nc1cccc2c1C1CCCCN1C2=O (stereo not given),Activity,[19],45.3%
same,Activity,[20],Active
same,IC50,[21],0.075 µM
same,Activity,[22],Non-toxic
same,Activity,[23],Active
same,Activity,[24],Active
same,Activity,[25],51%
same,Activity,[26],Active
same,Activity,[27],Non-toxic
same,Activity,[28],Non-toxic
same,Activity,[29],Active
same,Activity,[30],Non-toxic
same,Activity,[31],Non-toxic
same,Activity,[32],Active
same,Activity,[33],Active
O=C(Nc1ccc(O)cn1)Nc1cccc2c1C1CCCCN1C2=O (stereo not given),IC50,[5],≥ 10 µM
same,IC50,[2],> 10 µM
same,IC50,[3],1.3 µM
same,IC50,[1],4 µM
O=C(Nc1ccccc1)Nc1cccc2c1C1CCCCN1C2=O (stereo not given),IC50,[2],> 10 µM
same,IC50,[3],> 10 µM
same,IC50,[1],> 10 µM
COc1cccnc1NC(=O)Nc1cccc2c1C1CCCCN1C2=O (stereo not given),IC50,[5],2.6 µM
same,IC50,[2],8.1 µM
same,IC50,[3],0.59 µM
same,IC50,[1],1.3 µM
O=C(Nc1cccc2c1C1CCCCN1C2=O)Nc1nc(Cl)c(Cl)c(Cl)c1Cl (stereo not given),IC50,[2],> 10 µM
same,IC50,[3],10 µM
same,IC50,[1],4.3 µM
O=C(Nc1csc(-c2ccncc2)n1)Nc1cccc2c1C1CCCCN1C2=O (stereo not given),IC50,[1],0.13 µM
O=C(Nc1ncccn1)Nc1cccc2c1C1CCCCN1C2=O (stereo not given),IC50,[1],0.75 µM
O=C(Nc1ccc(Br)cn1)Nc1cccc2c1C1CCCCN1C2=O (stereo not given),IC50,[2],> 10 µM
same,IC50,[1],0.076 µM
O=C(Nc1cc(Br)ccn1)Nc1cccc2c1C1CCCCN1C2=O (stereo not given),IC50,[4],0.4 µM
same,IC50,[5],1.3 µM
same,IC50,[6],0.5 µM
same,IC50,[7],0.1 µM
same,IC50,[8],0.1 µM
same,IC50,[2],7.6 µM
same,IC50,[3],0.025 µM
same,IC50,[1],0.022 µM
same,IC50,[9],0.5 µM
same,IC50,[10],5 µM
same,IC50,[11],0.1 µM
O=C(Nc1cccc(N2CCCCC2)n1)Nc1cccc2c1C1CCCCN1C2=O (stereo not given),IC50,[5],> 10 µM
same,IC50,[2],> 10 µM
same,IC50,[3],> 10 µM
same,IC50,[1],0.36 µM
O=C(Nc1cscn1)Nc1cccc2c1C1CCCCN1C2=O (stereo not given),IC50,[1],0.76 µM
O=C(Nc1cc2ccccc2cn1)Nc1cccc2c1C1CCCCN1C2=O (stereo not given),IC50,[4],3 µM
same,IC50,[6],4 µM
same,IC50,[7],1 µM
same,IC50,[8],1 µM
same,IC50,[2],> 10 µM
same,IC50,[3],0.068 µM
same,IC50,[1],0.17 µM
same,IC50,[9],3 µM
same,IC50,[10],2 µM
same,IC50,[11],2 µM
O=C(Nc1cccc(F)n1)Nc1cccc2c1C1CCCCN1C2=O (stereo not given),IC50,[4],0.5 µM
same,IC50,[6],0.4 µM
same,IC50,[7],0.15 µM
same,IC50,[8],0.09 µM
same,IC50,[3],0.09 µM
same,IC50,[1],0.026 µM
same,IC50,[9],0.09 µM
same,IC50,[10],0.12 µM
same,IC50,[11],0.2 µM
O=C(Nc1ccc2cccc(O)c2n1)Nc1cccc2c1C1CCCCN1C2=O (stereo not given),IC50,[2],> 10 µM
same,IC50,[3],0.7 µM
same,IC50,[1],0.15 µM
O=C(Nc1cccc(Br)n1)Nc1cccc2c1C1CCCCN1C2=O (stereo not given),IC50,[4],> 25 µM
same,IC50,[6],> 25 µM
same,IC50,[7],> 25 µM
same,IC50,[8],> 25 µM
same,IC50,[1],0.043 µM
same,IC50,[9],> 25 µM
same,IC50,[10],> 25 µM
same,IC50,[11],> 25 µM
O=C(Nc1cc[nH]n1)Nc1cccc2c1C1CCCCN1C2=O (stereo not given),IC50,[1],0.47 µM
Cn1ccc(NC(=O)Nc2cccc3c2C2CCCCN2C3=O)n1 (stereo not given),IC50,[1],0.31 µM
